± gives the expanded uncertainty stated by the source. Each block holds one compound with its values, some of them ahead of it.
Key:
[1] = Liquid
[2] = excess molar enthalpy (molar enthalpy of mixing); xn = mol fraction of the nth substance listed; conditions: 323.15 K, 4100 kPa, Liquid, Flow calorimetry

SMILES: OCCO [1,2-ethanediol]
vapor or sublimation pressure ([1]; 333.15 K): 0.22 ± 0.04 kPa
vapor or sublimation pressure ([1]; 353.15 K): 0.77 ± 0.05 kPa

SMILES: CC(=O)c1ccccc1 [acetophenone]
vapor or sublimation pressure ([1]; 323.27 K): 0.34 ± 0.042 kPa

SMILES: C=CC [propene]
vapor or sublimation pressure ([1]; 323.27 K): 2058.9 ± 14 kPa

The remaining lines, values ahead:

excess molar enthalpy ([2]; x1 = 0.0702): 0.054 ± 0.002 kJ/mol
excess molar enthalpy ([2]; x1 = 0.1375): 0.105 ± 0.003 kJ/mol
excess molar enthalpy ([2]; x1 = 0.202): 0.148 ± 0.003 kJ/mol
excess molar enthalpy ([2]; x1 = 0.264): 0.188 ± 0.004 kJ/mol
excess molar enthalpy ([2]; x1 = 0.3235): 0.213 ± 0.005 kJ/mol
excess molar enthalpy ([2]; x1 = 0.4086): 0.24 ± 0.005 kJ/mol
excess molar enthalpy ([2]; x1 = 0.4889): 0.25 ± 0.006 kJ/mol
excess molar enthalpy ([2]; x1 = 0.5893): 0.246 ± 0.006 kJ/mol
excess molar enthalpy ([2]; x1 = 0.6828): 0.218 ± 0.005 kJ/mol
excess molar enthalpy ([2]; x1 = 0.7487): 0.184 ± 0.004 kJ/mol
excess molar enthalpy ([2]; x1 = 0.8115): 0.142 ± 0.003 kJ/mol
excess molar enthalpy ([2]; x1 = 0.8516): 0.113 ± 0.003 kJ/mol
excess molar enthalpy ([2]; x1 = 0.8905): 0.082 ± 0.002 kJ/mol
excess molar enthalpy ([2]; x1 = 0.9281): 0.052 ± 0.002 kJ/mol
excess molar enthalpy ([2]; x1 = 0.9646): 0.025 ± 0.001 kJ/mol
SMILES: C=CC [propene] + CC(=O)c1ccccc1

vapor or sublimation pressure ([1]; 333.15 K): 19.93 ± 0.17 kPa
vapor or sublimation pressure ([1]; 353.15 K): 47.44 ± 0.35 kPa
SMILES: O [water]

Reference: the NIST ThermoML archive (doi:10.1021/je0342522)
